Here are results for 15 compounds from ChEMBL document CHEMBL4376833, “Influence of Non-natural Cationic Amino Acids on the Biological Activity Profile of Innate Defense Regulator Peptides” (J Med Chem, 2019).

The source made the active and inactive calls. The rule behind the calls is not given here. Non-standard residues stand in square brackets, D forms with d. Residues, ends and D or L forms follow the SMILES beside them. hArg = N=C(N)NCCCC[C@H](N)C(=O)O; Agb = N=C(N)NCC[C@H](N)C(=O)O; Agp = N=C(N)NC[C@H](N)C(=O)O; Orn = NCCC[C@H](N)C(=O)O; Dab = NCC[C@H](N)C(=O)O; Dap = NC[C@H](N)C(=O)O

Assay [1] deals with Staphylococcus aureus. As to the kind of experiment: Antibiofilm activity against methicillin-resistant Staphylococcus aureus assessed as inhibition of biofilm formation by measuring residual biofilm growth incubated for overnight at 10-fold dilution by crystal violet staining based microtiter plate assay relative to control. It is filed as functional.
Assay [2] has as its system Staphylococcus aureus. As to the kind of experiment: Antibiofilm activity against methicillin-resistant Staphylococcus aureus assessed as inhibition of biofilm formation incubated for overnight by crystal violet staining based microtiter plate assay. The class given is functional, organism-based.
Assay [3] concerns Staphylococcus aureus. As to the kind of experiment: Antibacterial activity against methicillin-resistant Staphylococcus aureus assessed as alteration in bacterial growth incubated for overnight by microtiter plate based spectrophotometric analysis. The class given is functional, organism-based.

For the compound `CC[C@H](C)[C@H](NC(=O)[C@H](CCNC(=N)N)NC(=O)[C@@H](NC(=O)[C@H](C)NC(=O)[C@@H](NC(=O)[C@@H](NC(=O)[C@H](CC(C)C)NC(=O)[C@H](CCCNC(=N)N)NC(=O)[C@@H](N)C(C)C)[C@@H](C)CC)C(C)C)C(C)C)C(=O)N[C@@H](Cc1c[nH]c2ccccc12)C(=O)N[C@@H](CCCNC(=N)N)C(=O)N[C@@H](CCCNC(=N)N)C(N)=O` (H-VRLIVAV[Agb]IWRR-NH2), in the assay with Staphylococcus aureus [1], the “residual biofilm growth (% of control)” value is recorded as 103.5%. Besides, the inhibition entry in the assay with Staphylococcus aureus [2] was “Dose-dependent effect”. Besides, the outcome in the assay on Staphylococcus aureus [3] was Active.
Regarding `CC[C@H](C)[C@H](NC(=O)[C@H](CCCNC(=N)N)NC(=O)[C@H](CCNC(=N)N)NC(=O)[C@H](C)NC(=O)[C@@H](NC(=O)[C@@H](NC(=O)[C@H](CC(C)C)NC(=O)[C@H](CCCNC(=N)N)NC(=O)[C@@H](N)C(C)C)[C@@H](C)CC)C(C)C)C(=O)N[C@@H](Cc1c[nH]c2ccccc12)C(=O)N[C@@H](CCCNC(=N)N)C(=O)N[C@@H](CCCNC(=N)N)C(N)=O` (H-VRLIVA[Agb]RIWRR-NH2), the “residual biofilm growth (% of control)” value in the assay on Staphylococcus aureus [1] is reported as 104.1%. The inhibition result in the assay with Staphylococcus aureus [2] was “Dose-dependent effect”. Besides, the outcome with Staphylococcus aureus [3] was Active.
On the same counts, the results for `CC[C@H](C)[C@H](NC(=O)[C@H](CC(C)C)NC(=O)[C@H](CCCNC(=N)N)NC(=O)[C@@H](N)C(C)C)C(=O)N[C@H](C(=O)N[C@@H](C)C(=O)N[C@H](C(=O)N[C@@H](CCCNC(=N)N)C(=O)N[C@@H](CCN)C(=O)N[C@@H](Cc1c[nH]c2ccccc12)C(=O)N[C@@H](CCCNC(=N)N)C(=O)N[C@@H](CCCNC(=N)N)C(N)=O)C(C)C)C(C)C` (H-VRLIVAVR[Dab]WRR-NH2) are 102%, “Dose-dependent effect” and “Active”.
With H-VRLKVAVRIWRR-NH2, the “residual biofilm growth (% of control)” value with Staphylococcus aureus [1] is 10.7%. The inhibition result in the assay with Staphylococcus aureus [2] was “Dose-dependent effect”. For the same compound, in the assay on Staphylococcus aureus [3], the outcome was Active.
In the case of H-VKLIVAVRIWRR-NH2, the “residual biofilm growth (% of control)” value in the assay on Staphylococcus aureus [1] came to 7.6%. In addition, the inhibition result in the assay on Staphylococcus aureus [2] is “Dose-dependent effect”. Also, the outcome in the assay on Staphylococcus aureus [3] was Active.
On the same counts, the results for `CC[C@H](C)[C@H](NC(=O)[C@H](CCCNC(=N)N)NC(=O)[C@H](CN)NC(=O)[C@H](C)NC(=O)[C@@H](NC(=O)[C@@H](NC(=O)[C@H](CC(C)C)NC(=O)[C@H](CCCNC(=N)N)NC(=O)[C@@H](N)C(C)C)[C@@H](C)CC)C(C)C)C(=O)N[C@@H](Cc1c[nH]c2ccccc12)C(=O)N[C@@H](CCCNC(=N)N)C(=O)N[C@@H](CCCNC(=N)N)C(N)=O` (H-VRLIVA[Dap]RIWRR-NH2) are 102%, “Dose-dependent effect” and “Active”.
As for `CC[C@H](C)[C@H](NC(=O)[C@H](CCCN)NC(=O)[C@@H](NC(=O)[C@H](C)NC(=O)[C@@H](NC(=O)[C@@H](NC(=O)[C@H](CC(C)C)NC(=O)[C@H](CCCNC(=N)N)NC(=O)[C@@H](N)C(C)C)[C@@H](C)CC)C(C)C)C(C)C)C(=O)N[C@@H](Cc1c[nH]c2ccccc12)C(=O)N[C@@H](CCCNC(=N)N)C(=O)N[C@@H](CCCNC(=N)N)C(N)=O` (H-VRLIVAV[Orn]IWRR-NH2), in the assay with Staphylococcus aureus [1], the “residual biofilm growth (% of control)” value was determined as 14%. Also, the inhibition entry in the assay on Staphylococcus aureus [2] was “Dose-dependent effect”. The result in the assay with Staphylococcus aureus [3] was Active.
Taken in the same sequence, the figures for `CC[C@H](C)[C@H](NC(=O)[C@H](CCCNC(=N)N)NC(=O)[C@@H](NC(=O)[C@H](C)NC(=O)[C@@H](NC(=O)[C@@H](NC(=O)[C@H](CC(C)C)NC(=O)[C@H](CCNC(=N)N)NC(=O)[C@@H](N)C(C)C)[C@@H](C)CC)C(C)C)C(C)C)C(=O)N[C@@H](Cc1c[nH]c2ccccc12)C(=O)N[C@@H](CCCNC(=N)N)C(=O)N[C@@H](CCCNC(=N)N)C(N)=O` (H-V[Agb]LIVAVRIWRR-NH2) were 29.6%, “Dose-dependent effect” and “Active”.
In the case of `CC[C@H](C)[C@H](NC(=O)[C@H](CCCNC(=N)N)NC(=O)[C@@H](NC(=O)[C@H](C)NC(=O)[C@@H](NC(=O)[C@@H](NC(=O)[C@H](CC(C)C)NC(=O)[C@H](CCCCNC(=N)N)NC(=O)[C@@H](N)C(C)C)[C@@H](C)CC)C(C)C)C(C)C)C(=O)N[C@@H](Cc1c[nH]c2ccccc12)C(=O)N[C@@H](CCCNC(=N)N)C(=O)N[C@@H](CCCNC(=N)N)C(N)=O` (H-V[hArg]LIVAVRIWRR-NH2), the “residual biofilm growth (% of control)” value in the assay with Staphylococcus aureus [1] worked out at 38.4%. In addition, the inhibition entry in the assay on Staphylococcus aureus [2] is “Dose-dependent effect”. Moreover, the result in the assay on Staphylococcus aureus [3] was Active.
On the same counts, the results for `CC[C@H](C)[C@H](NC(=O)[C@H](CCCNC(=N)N)NC(=O)[C@@H](NC(=O)[C@H](CN)NC(=O)[C@@H](NC(=O)[C@@H](NC(=O)[C@H](CC(C)C)NC(=O)[C@H](CCCNC(=N)N)NC(=O)[C@@H](N)C(C)C)[C@@H](C)CC)C(C)C)C(C)C)C(=O)N[C@@H](Cc1c[nH]c2ccccc12)C(=O)N[C@@H](CCCNC(=N)N)C(=O)N[C@@H](CCCNC(=N)N)C(N)=O` (H-VRLIV[Dap]VRIWRR-NH2) are 34.1%, “Dose-dependent effect” and “Active”.
Turning to H-VRLIRAVRIWRR-NH2, the “residual biofilm growth (% of control)” value in the assay with Staphylococcus aureus [1] is reported as 102%. The inhibition entry in the assay with Staphylococcus aureus [2] was “Dose-dependent effect”. Further, the result in the assay with Staphylococcus aureus [3] was Active.
Taken in the same sequence, the figures for `CC[C@H](C)[C@H](NC(=O)[C@H](CNC(=N)N)NC(=O)[C@@H](NC(=O)[C@H](C)NC(=O)[C@@H](NC(=O)[C@@H](NC(=O)[C@H](CC(C)C)NC(=O)[C@H](CCCNC(=N)N)NC(=O)[C@@H](N)C(C)C)[C@@H](C)CC)C(C)C)C(C)C)C(=O)N[C@@H](Cc1c[nH]c2ccccc12)C(=O)N[C@@H](CCCNC(=N)N)C(=O)N[C@@H](CCCNC(=N)N)C(N)=O` (H-VRLIVAV[Agp]IWRR-NH2) were 102.2%, “Dose-dependent effect” and “Active”.
For H-VRLIKAVRIWRR-NH2, the “residual biofilm growth (% of control)” value in the assay with Staphylococcus aureus [1] was 102%. Further, the inhibition result in the assay with Staphylococcus aureus [2] is “Dose-dependent effect”. Further, the outcome with Staphylococcus aureus [3] was Active.
In the case of `CC[C@H](C)[C@H](NC(=O)[C@H](CCCNC(=N)N)NC(=O)[C@@H](NC(=O)[C@H](C)NC(=O)[C@@H](NC(=O)[C@@H](NC(=O)[C@H](CC(C)C)NC(=O)[C@H](CCN)NC(=O)[C@@H](N)C(C)C)[C@@H](C)CC)C(C)C)C(C)C)C(=O)N[C@@H](Cc1c[nH]c2ccccc12)C(=O)N[C@@H](CCCNC(=N)N)C(=O)N[C@@H](CCCNC(=N)N)C(N)=O` (H-V[Dab]LIVAVRIWRR-NH2), the “residual biofilm growth (% of control)” value in the assay with Staphylococcus aureus [1] is 21.5%. Also, the inhibition entry in the assay on Staphylococcus aureus [2] is “Dose-dependent effect”. Also, the result in the assay with Staphylococcus aureus [3] was Active.
Turning to `CC[C@H](C)[C@H](NC(=O)[C@H](CCCNC(=N)N)NC(=O)[C@@H](NC(=O)[C@H](C)NC(=O)[C@@H](NC(=O)[C@@H](NC(=O)[C@H](CC(C)C)NC(=O)[C@H](CCCN)NC(=O)[C@@H](N)C(C)C)[C@@H](C)CC)C(C)C)C(C)C)C(=O)N[C@@H](Cc1c[nH]c2ccccc12)C(=O)N[C@@H](CCCNC(=N)N)C(=O)N[C@@H](CCCNC(=N)N)C(N)=O` (H-V[Orn]LIVAVRIWRR-NH2), the “residual biofilm growth (% of control)” value in the assay with Staphylococcus aureus [1] was determined as 13.2%. In the assay with Staphylococcus aureus [2], the inhibition entry is “Dose-dependent effect”. The outcome in the assay on Staphylococcus aureus [3] was Active.
